Several values for one entry are separate records, joined by “and”; a condition that tells them apart may be missing. Identical values can stand only once. Entries after “also recorded” stand apart in the source; their conditions may differ.
Columns and labels:
[1] = test system: DBA/1 mice; test: NSAID inhibition of oral tolerance induction to collagen II; arthritic joints scored; assay type: in vivo
Description: To determine whether tolerance induction to orally fed bovine CII in DBA/1 mice would be abrogated by orally fed NSAID, 3 groups of 20-22 DBA/1 mice were fed (by gavage) eight doses (Monday, Tuesday, Thursday, and Friday for 2 weeks) of the following: Placebo (saline) in the a.m. and Placebo (0.1 M HAc) in the p.m.; Placebo (saline) in the a.m. and 10 μg native bovine CII in the p.m.; or piroxicam (2.4 μg/gm) in the a.m. and native bovine CII (10 μg) in the p.m. After 1 week, all mice were immunized (intradermally at the base of tail) with 100 μg of bovine CII emulsified in complete Freund's adjuvant. Animals were placed in coded cages and were scored by a blinded observer twice weekly for the number of arthritic joints (joints swollen, red, and/or deformed).

[2] = test system: spleen cells; test: IFNγ production by spleen cells of fed, CII-immunized mice cultured with α1(II) CB peptide mixture (ELISA); assay type: in vivo; details: FIG. 8
Text: To assess the effect of oral feeding of piroxicam to another group of mice fed Placebo or CII on spleen cell IFNγ production in a manner similar to the experiment in FIG. 7, four groups of mice (4 mice per group) were gavaged 8 days over 2 weeks with the following: Piroxicam a.m.—CII p.m.; Piroxicam a.m.—HAc p.m.; Saline a.m.—CII p.m.; or Saline a.m.—HAc p.m. After 1 week rest, all mice were immunized at the base of the tail with a CII—complete Freund's adjuvant emulsion. After 14 days, mice ere sacrificed, and spleen cells were isolated and set up in culture with PBS or α1(II)CB peptide mixture. After 72 h culture, harvested supernatants ere analyzed for IFNγ levels by ELISA.

[3] = test system: DBA/1 mice; test: Persistent NSAID effect on oral tolerance; arthritic joints after late CII immunization; assay type: in vivo; details: FIG. 10
Description: To determine whether chronic feeding of piroxicam with CII would have a persistent effect on tolerance induction to CII in DBA/1 mice, three groups of 10-11 DBA/1 mice were fed 8 doses of CII over two weeks (as above) on two occasions separated by 6 months: piroxicam (2.4 μg/gm) a.m. and Placebo (0.1M HAc, 100 μl) p.m.; Placebo (saline) a.m. and native bovine CII (10 μg) p.m; or piroxicam (2.4 μg/gm) a.m. and native bovine CII (10 μg) p.m. Three months after the second 8 dose feeding, each mouse was immunized (intradermally at base of tail) with 100 μg native bovine CII emulsified in complete Freund's adjuvant. Mice were placed in coded cages and scored twice weekly by a blinded observer for numbers of arthritic joints.

[4] = test system: Peyer's patch cells; test: Peyer's patch cell / normal spleen cell co-culture proliferation with α1(II) CB peptide mixture (3H thymidine); assay type: in vivo; details: cells from mice fed piroxicam plus CII vs CII alone or piroxicam alone; p<0.03; FIG. 11
Description: To assess the status of the GALT in these three groups of mice, Peyer's patch cells were isolated from each animal, and set up (2.5×10^5/ml) in quadruplicate in co-culture with normal DBA/1 spleen cells (2×10^6/ml) with addition of recombinant murine IL2 (10 U/ml). PBS (as a control) or 50 μg/ml bovine α1(II) CB peptide mixture were added to quadruplicate wells in 96 round bottom well plates. After 3 days, cultures were pulsed with ^3H thymidine and harvested onto paper filters 24 h later. The “stimulation index” was calculated for each mouse by dividing the cpm of α1(II) CB peptide mixture culture by the cpm of the PBS control culture for each mouse. […] Thus, the marked increase in the stimulation index of Peyer's patch cells with DBA/1 spleen cells in the presence of α1(II) CB peptide mixture is quite exceptional and unexpected.

[5] = test system: mesenteric lymph node cells; test: Mesenteric lymph node cell proliferation with α1(II) CB peptide mixture; assay type: in vivo, mice; details: FIG. 12
[6] = test system: PBMC; test: Oral type I collagen in SSc patients; change in IL-10 production by antigen-stimulated PBMC; assay type: in vivo, human
Description: Samples from 26 patients from a trial of oral type I collagen (CI) in patients with diffuse systemic sclerosis (SSc) who took 500 μg/day CI for 12 months were collected. […] No patients were on DMARDs, biologies, NSAIDS or prednisone.
Patients with ROT1 AA, GG or GA genotype had IL-10 measured of IL-PBMC cultures stimulated by α1(I) CB mixture, α2(I) CB mixture, or native CI after receiving oral CI for 12 months minus the values of IL-10 in the supernatants of PBMC cultures stimulated with the same antigens at baseline before oral CI was administered to the SSc patients.

[7] = Phase II oral CI tolerance clinical trial in SSc; change in MRSS; assay type: in vivo, human; details: CI treated vs placebo treated completers, Late Phase ROT1AA patients deleted; Wilcoxon Rank Sum test; FIG. 16
Text: In the Phase II oral CI tolerance clinical trial at 12 months, 79 SSc patients were genotyped of the 168 enrolled in the clinical trial. Seven of the 23 ROT1AA genotype were in the Late Phase category, and deleted from the results.

[8] = group mean, Genotype AA (N = 6)
[9] = individual SSc patients, Genotype AA, after 12 months oral CI 500 μg/day minus baseline
[10] = individual SSc patients, Genotype GG or GA, after 12 months oral CI 500 μg/day minus baseline
[11] = patients with ROT1 AA genotype, oral bovine CI 500 ug/day for 12 months

CN1C(C(=O)Nc2ccccn2)=C(O)c2ccccc2S1(=O)=O [piroxicam]
oral tolerance (OT) induction ([1]; DBA/1 mice fed CII, FIG. 7 / similar studies (data not shown)): abrogation of certain forms of oral tolerance
arthritic joints ([1]; piroxicam 2.4 μg/gm a.m. + CII 10 μg p.m., eight doses, FIG. 7): significantly more arthritic joints
IFNγ production by spleen cells cultured with α1(II) CB peptide mixture ([2]; fed with Placebo (alone)): reduced production of IFNγ
IFNγ production by spleen cells stimulated with α1(II) CB peptide mixture ([2]; piroxicam orally fed to mice being fed oral CII): dramatic increase
oral tolerance [3]: persistent abrogation of oral tolerance
arthritic joints at week 7 and 8 after immunization ([3]; fed piroxicam plus CII 9 and 3 months before vs Placebo plus CII, p<0.04 at 8 weeks): significantly more arthritic joints
stimulation by α1(II) CB peptide mixture (stimulation index) [4]: marked stimulation
proliferation in response to α1(II) CB peptide mixture ([5]; mice fed either CII or piroxicam alone): did not proliferate
stimulation by α1(II) CB peptide mixture ([5]; mice fed piroxicam plus CII): marked stimulation

type I collagen [CI]
IL-10 production change, Bovine Native CI [6, 8]: -825 ± 338 pg/mL
IL-10 production change, Bovine α1(I) CB Mix [6, 8]: -622 ± 480 pg/mL
IL-10 production change, Bovine α2(I) CB Mix [6, 8]: -975 ± 627 pg/mL
IL-10 production change, Bovine α1(I) CB Mix ([6]; group mean, Genotype GG or GA): 30 ± 119 pg/mL
IL-10 production change, Bovine α2(I) CB Mix ([6]; group mean, Genotype GG or GA): 22 ± 156 pg/mL
IL-10 production change, Bovine Native CI ([6]; group mean, Genotype GG or GA (BB or BA)): 27 ± 97 pg/mL
IL-10 production change, Bovine Native CI [6, 9]: −1726 pg/ml and +70 pg/ml and −920 pg/ml and −233 pg/ml and −1886 pg/ml and −253 pg/ml
IL-10 production change, Bovine α1(I) CB Mix [6, 9]: −342 pg/ml and −19 pg/ml and −611 pg/ml and −112 pg/ml and −2942 pg/ml and +295 pg/ml
IL-10 production change, Bovine α2(I) CB Mix [6, 9]: −1692 pg/ml and +28 pg/ml and −494 pg/ml and +490 pg/ml and −3736 pg/ml and −448 pg/ml
IL-10 production change, Bovine Native CI [6, 10]: −135 pg/ml and +566 pg/ml and −334 pg/ml and +192 pg/ml (2×) and +103 pg/ml and +386 pg/ml and −1564 pg/ml and +233 pg/ml and +21 pg/ml and +237 pg/ml and +150 pg/ml and −94 pg/ml and +32 pg/ml and −282 pg/ml and +232 pg/ml and −52 pg/ml and +43 pg/ml and +269 pg/ml and +341 pg/ml
IL-10 production change, Bovine α1(I) CB Mix [6, 10]: −314 pg/ml and +410 pg/ml and −104 pg/ml and −391 pg/ml and +529 pg/ml and +216 pg/ml and −968 pg/ml and +347 pg/ml and −397 pg/ml and +1364 pg/ml and +108 pg/ml and −205 pg/ml and −81 pg/ml and −561 pg/ml and +582 pg/ml and −46 pg/ml and −538 pg/ml and −227 pg/ml and +663 pg/ml and +221 pg/ml
IL-10 production change, Bovine α2(I) CB Mix [6, 10]: −388 pg/ml and +203 pg/ml and −86 pg/ml and −180 pg/ml and +859 pg/ml and +546 pg/ml and −1000 pg/ml and +261 pg/ml and −2021 pg/ml and +1460 pg/ml and +145 pg/ml and −113 pg/ml and +141 pg/ml (2×) and −509 pg/ml and +5 pg/ml and +381 pg/ml and +252 pg/ml and −115 pg/ml and −415 pg/ml
IL-10 production by PBMC cultured with native bovine CI and α2(I) CB mixture [6, 11]: did not upregulate IL-10 production; also recorded: deficient upregulation of IL-10 production
IL-10 production by PBMC cultured with α1(I) CB mixture [6, 11]: trend toward defective production
change in MRSS at 12 months from baseline values [7]: significant difference
